Experimental data published in PMC3176258, “A genomic biomarker signature can predict skin sensitizers using a cell-based in vitro alternative to animal tests” (BMC Genomics, 2011).
Values after ≈ are worked out from the molar mass of the structure shown. Read-outs that look alike come from different tables or passages of the source.

Experiments:
[1] = tested on: MUTZ-3 cells; assay: Transcriptional profiling (Affymetrix Human Gene 1.0 ST arrays, PCA) after 24 h stimulation; assay type: cell-based; settings: for Potency predicted by Prediction Signature gene expression profile: 200 transcripts, PCA, compared with LLNA potency, Figure 4C
[2] = tested on: MUTZ-3 cells; assay: Cytotoxicity by propidium iodide, relative viability
Experimental: A panel of 40 chemical compounds, consisting of 20 sensitizers and 20 non-sensitizers were used for cell stimulations. […] All chemicals were from Sigma-Aldrich, St. Louis, MO, USA. Compounds were dissolved in either dimethyl sulfoxide (DMSO) or distilled water. Prior to stimulations, the cytotoxicity of all compounds was monitored, using propidium iodide (PI) (BD Biosciences, San Diego, CA) using protocol provided by the manufacturer. The relative viability of stimulated cells was calculated as [drawing 1]
For toxic compounds, the concentration yielding 90% relative viability (Rv90) was used. For non-toxic compounds, a concentration of 500 μM was used. For non-toxic compounds that were insoluble at 500 μM in medium, the highest soluble concentration was used. For compounds dissolved in DMSO, the final concentration of DMSO in each well was 0.1%.
The human myeloid leukemia-derived cell line MUTZ-3 (DSMZ, Braunschweig, Germany) was maintained in α-MEM (Thermo Scientific Hyclone, Logan, UT) supplemented with 20% (volume/volume) fetal calf serum (Invitrogen, Carlsbad, CA) and 40 ng/ml rhGM-CSF (Bayer HealthCare Pharmaceuticals, Seattle, WA), as described. Cultures were maintained at 200.000 cells/ml during expansion, with a media change every 3-4 days. No differentiating steps were performed. Instead, the proliferating progenitor MUTZ-3 was used for stimulations, as delivered by the supplier. Prior to each experiment, the cells were immunophenotyped using flow cytometry as a quality control. Cells were seeded in 6-well plates at 200.000 cells/ml. Stock solutions of each compound were prepared in either DMSO or distilled water, and were subsequently diluted so the in-well concentrations corresponded to the Rv90 value, and in-well concentrations of DMSO were 0.1%. Cells were incubated for 24 h at 37°C and 5% CO2. Thereafter, cells were harvested and analyzed by flow cytometry. In parallel, harvested cells were lysed in TRIzol reagent (Invitrogen) and stored at -20°C until RNA extraction. Stimulations with chemicals were performed in three individual experiments, so that triplicates samples were obtained.

[3] = tested on: MUTZ-3 cells; assay: CD86 cell surface expression by flow cytometry after 24 h stimulation; assay type: cell-based, human; settings: for CD86 surface expression: flow cytometry, Student's t test
Experimental: CD86 is the most extensively studied biomarker for sensitization to date, using e.g. monocyte derived dendritic cells (MoDCs) or human cell lines and their progenitors, such as THP-1, U-937 and KG-1. Thus, as a reference, cell surface expression of CD86 was measured with flow cytometry after 24 h stimulation, using 20 sensitizers and 20 non-sensitizers, as well as vehicle controls (Figure 2). […]. […] Consequently, CD86 cannot classify skin sensitizers, using a system based on MUTZ-3 cells.
No differentiating steps were performed. […] Thereafter, cells were harvested and analyzed by flow cytometry.
All cell surface staining and washing steps were performed in PBS containing 1% BSA (w/v). Cells were incubated with specific mouse mAbs for 15 min at 4°C. The following mAbs were used for flow cytometry: FITC-conjugated CD1a (DakoCytomation, Glostrup, Denmark), CD34, CD86, and HLA-DR (BD Biosciences), PE-conjugated CD14 (DakoCytomation), CD54 and CD80 (BD Biosciences). Mouse IgG1, conjugated to FITC or PE were used as isotype controls (BD Biosciences) and PI was used to assess cell viability. FACSDiva software was used for data acquisition with FACSCanto II instrument (BD Bioscience). 10,000 events were acquired and gates were set based on light scatter properties to exclude debris and nonviable cells. Further data analysis was performed using FCS Express V3 (De Novo Software, Los Angeles, CA).

[4] = tested on: mice; settings: cited from earlier work
[5] = physchem; settings: aqueous buffer, kinetic from dmso stock
[6] = Max solubility in medium; settings: aqueous buffer, kinetic from dmso stock
[7] = 1137 genes, multi-group ANOVA, Figure 3D
[8] = concentration yielding 90% relative viability, propidium iodide
[9] = sensitizing potency category according to LLNA, ref (14, 15, 45-48)
[10] = 1010 transcripts, one-way ANOVA, one or more replicate, Figure 3B

Molecule: O=[N+]([O-])c1ccc(Cl)c([N+](=O)[O-])c1 [2,4-Dinitrochlorobenzene]
- PCA grouping, each individual stimulation [1, 7]: group together, separate from the negative group
- Rv90 [2, 8]: 4 µM
- CD86 surface expression [3]: significantly up-regulated
- Potency ([4]; mouse, in vivo): Extreme [15]

Molecule: Nc1ccccc1O [2-Aminophenol]
- PCA grouping, each individual stimulation [1]: group together, separate from the negative group
- Rv90 [2, 8]: 100 µM
- CD86 surface expression [3]: significantly up-regulated
- frequency of CD86-positive cells ([3]; one representative experiment out of three, Figure 2A): 60.4%
- Potency ([4]; mouse, in vivo): Strong [46]

Molecule: C=CC(=O)OCCO [2-Hydroxyethyl acrylate]
- Potency predicted by Prediction Signature gene expression profile [1]: showed resemblance to strong and extreme sensitizers
- PCA grouping, each individual stimulation [1, 7]: group together, separate from the negative group
- Rv90 [2, 8]: 100 µM
- CD86 surface expression [3]: significantly up-regulated

Molecule: Sc1nc2ccccc2s1 [2-Mercaptobenzothiazole]
- PCA grouping, each individual stimulation [1, 7]: group together, separate from the negative group
- CD86 surface expression [3]: significantly up-regulated
- Potency [4, 9]: Moderate [46]
- solubility [5]: 250 µM (≈ 41.8 µg/mL)

Molecule: Nc1ccc(N)c([N+](=O)[O-])c1 [2-nitro-1,4-Phenylendiamine]
- PCA grouping, each individual stimulation [1, 7]: group together, separate from the negative group
- CD86 surface expression [3]: significantly up-regulated

Molecule: O=Cc1ccccc1 [Benzaldehyde]
- solubility [5]: 250 µM (≈ 26.5 µg/mL)

Molecule: Clc1ccccc1 [Chlorobenzene]
- solubility [6]: 98 µM (≈ 11 µg/mL)

Molecule: O=C/C=C/c1ccccc1 [Cinnamaldehyde]
- Rv90 [2, 8]: 120 µM
- CD86 surface expression [3]: significantly up-regulated
- Potency [4, 9]: Moderate [47]

Molecule: OC/C=C/c1ccccc1 [Cinnamic alcohol]
- PCA grouping, each individual stimulation [1, 7]: group together, separate from the negative group
- Potency [4, 9]: Weak [46]
- solubility [5]: 500 µM (≈ 67.1 µg/mL)

Molecule: NCCN [Ethylendiamine]
- Potency predicted by Prediction Signature gene expression profile [1]: grouped together with weak sensitizers
- PCA grouping, sensitizing vs. non-sensitizing chemicals [1, 10]: grouped together with the control group
- Potency ([4]; mouse, in vivo): Moderate [14]

Molecule: C=CCc1ccc(O)c(OC)c1 [Eugenol]
- PCA grouping, sensitizing vs. non-sensitizing chemicals [1, 10]: grouped together with the control group
- Rv90 ([2]; human, 24 h): 300 µM
- Potency ([4]; mouse, in vivo): Weak [47]

Molecule: C=O [Formaldehyde]
- PCA grouping, each individual stimulation [1]: group together, separate from the negative group
- Rv90 [2]: 80 µM
- Potency ([4]; mouse, in vivo): Strong [15]

Molecule: O=CC=O [Glyoxal]
- Potency predicted by Prediction Signature gene expression profile [1]: grouped together with weak sensitizers
- PCA grouping, sensitizing vs. non-sensitizing chemicals [1, 10]: grouped together with the control group
- Rv90 [2]: 300 µM
- Potency ([4]; mouse, in vivo): Moderate [46]

Molecule: CCCCCCC(C=O)=Cc1ccccc1 [Hexylcinnamic aldehyde]
- Potency predicted by Prediction Signature gene expression profile [1]: grouped together with weak sensitizers
- PCA grouping, sensitizing vs. non-sensitizing chemicals [1, 10]: grouped together with the control group
- Potency [4, 9]: Moderate [15]
- solubility [5]: 32.3 µM (≈ 7 µg/mL)

Molecule: CCCCCCCC(=O)O [Octanoic acid]
- PCA grouping, sensitizing vs. non-sensitizing chemicals [1, 10]: grouped closely with the sensitizers

Molecule: CCO/C=C1\N=C(c2ccccc2)OC1=O [Oxazolone]
- Potency ([4]; mouse, in vivo): Extreme [15]

Molecule: CC1(C)S[C@@H]2[C@H](NC(=O)Cc3ccccc3)C(=O)N2[C@H]1C(=O)O [Penicillin G]
- PCA grouping, sensitizing vs. non-sensitizing chemicals [1, 10]: grouped together with the control group

Molecule: Oc1ccccc1 [Phenol]
- PCA grouping, sensitizing vs. non-sensitizing chemicals [1]: grouped closely with the sensitizers

Molecule: [K+].[K+].[O]=[Cr](=[O])([O-])[O][Cr](=[O])(=[O])[O-] [Potassium dichromate]
- PCA grouping, each individual stimulation [1]: discrete profile
- CD86 surface expression [3]: significantly up-regulated
- Potency ([4]; mouse, in vivo): Extreme [14]

Molecule: Oc1cccc(O)c1 [Resorcinol]
- PCA grouping, sensitizing vs. non-sensitizing chemicals [1, 10]: grouped together with the control group
- PCA grouping, each individual stimulation [1, 7]: group together, separate from the negative group
- CD86 surface expression [3]: significantly up-regulated
- Potency [4, 9]: Moderate [48]

Molecule: CCCCCCCCCCCCOS(=O)(=O)[O-].[Na+] [Sodium dodecyl sulphate]
- Rv90 [2]: 200 µM

Molecule: O=C(O)c1ccc(O)cc1 [p-Hydroxybenzoic acid]
- solubility [5]: 250 µM (≈ 34.5 µg/mL)

Molecule: Nc1ccc(N)cc1 [p-Phenylendiamine]
- PCA grouping, each individual stimulation [1, 7]: group together, separate from the negative group
- Rv90 [2]: 75 µM
- CD86 surface expression [3]: significantly up-regulated
- Potency [4, 9]: Strong [47]

Molecule: Isoeugenol
- PCA grouping, sensitizing vs. non-sensitizing chemicals [1, 10]: grouped together with the control group

Molecule: Tween 80
- PCA grouping, sensitizing vs. non-sensitizing chemicals [1, 10]: grouped closely with the sensitizers
